Consider 6 compounds from PMC3489612, “Exploring flubendazole formulations for use in sheep. Pharmacokinetic evaluation of a cyclodextrin-based solution” (BMC Veterinary Research, 2012).

Values after ≈ are worked out from the molar mass of the structure shown.

A short description of series [1]: Abomasal fluid pharmacokinetics after intraruminal (i.r.) administration of FLBZ formulations (Experiment 1). The conditions noted are these: sheep, after i.r. FLBZ administration as both formulations. In kind it is in vivo. Here is the method: (§1) FLBZ-solution (2% w/v) was prepared by dissolution of 2 g of pure FLBZ and 10 g of HPßCD in 100 mL of dionized water (pH 1.2). The pH was adjusted using hydrochloric acid (25 mM). The formulation was shaken during 48 h (40°C) and then was filtrated through a 0.45 μm filter (Whatman, NJ, USA). The final FLBZ concentration was confirmed by HPLC (n = 4). The FLBZ suspension (2% w/v) was performed by addition of 2 g FLBZ pure standard in a suspension of CMC (0.5% w/v) prepared with deionized water (100 mL, pH = 6.0) under shaking (24 h). The FLBZ suspension was vigorously shaken before its administration to sheep.
(§2) Six (6) parasite-free Corriedale male sheep (average weight: 50.6 ± 6.0 kg) were used in this experiment. Animals were kept indoors with commercial balanced food and water ad libitum for two months prior and during the trial. Four (4) animals were surgically fitted with a permanent cannula in the pyloric region of the abomasum following an adaptation of the technique described by Komarek. A 6-week post-surgery recovery period was allowed before starting the pharmacokinetic trials. […]
(§3) Experimental and fortified samples of plasma and abomasal fluid were analyzed for FLBZ, R-FLBZ, H-FLBZ and the internal standard (OBZ) by HPLC following the method described by Moreno et al.. […]

Series [2] can be described thus: In vitro aqueous solubility of BZD compounds with or without HPßCD (10%). To be noted: for solubility at 2 weeks: 25 °C, thermodynamic from solid; for HPßCD-induced solubility increasing effect: pH 1.2, with versus without HPßCD (10%); for aqueous solubility: 25°C, n = 6, mean ± SD. Here is the method:
BZD solubilities were determined in aqueous solutions at pH values of 1.2 (HCl/KCl) and 7.4 (KH2PO4) with or without HPßCD (10%). An excess amount of ABZ, ABZSO, MBZ, OFZ or FLBZ was suspended in glass tubes containing 10 mL of each medium. The tubes were placed in a water bath at 25°C with a constant shaken rate of 100 strokes/min for two weeks (Yamato BT-31, Yamato Scientific Co., Japan). […] The supernatants were collected and filtered through a 0.2 μm filter (Whatman Inc., NJ, USA). After filtration, samples were analyzed for drug quantification by HPLC following the method described below.
Experimental and fortified samples of plasma and abomasal fluid were analyzed for FLBZ, R-FLBZ, H-FLBZ and the internal standard (OBZ) by HPLC following the method described by Moreno et al.. Briefly, 50 μL of sample were injected in a Shimadzu 10 A HPLC System (Kyoto, Japan), using an UV detector set at 292 nm, an autosampler and a controller (Shimadzu Class LC10, Kyoto, Japan). Elution from the stationary phase (Selectosil C18 column, 5 μm, 250 × 4.6 mm, Phenomenex®, CA, USA) has been carried out at a flow rate of 1.2 mL/min, using a mixture of acetonitrile:potassium phosphate buffer (25 mM, pH 5.3) (40:60) as a mobile phase, during 13 min at 30°C.

The conditions of series [3]: in vivo. The procedure:
as §1, §2, §3

For series [4], the system named is parasite motility. More on the design: method as in PMID 9421720. The conditions noted are these: cited from earlier work.
Series [5] concerns ß-tubulin. More on the design: method as in PMID 15463312. To be noted: cited from earlier work.
Where [6] appears, read: aqueous solution (HCl/KCl) with 10% HPβCD, pH 1.2, aqueous with cosolvent or surfactant or cyclodextrin.
Setting [7] is: aqueous solution (HCl/KCl) without HPβCD, pH 1.2, simulated gastric fluid.
Setting [8] is: aqueous solution (KH2PO4) with 10% HPβCD, pH 7.4, aqueous with cosolvent or surfactant or cyclodextrin.

Take `COC(=O)Nc1nc2ccc(C(O)c3ccc(F)cc3)cc2[nH]1` (centres unmarked) [R-FLBZ, reduced flubendazole]: the “time of detection in abomasal fluid post-treatment” value in series [1] is recorded as “up to 96 h”.

`CCCSc1ccc2nc(NC(=O)OC)[nH]c2c1` [Albendazole]: the solubility at 2 weeks in series [2] (pH 1.2, aqueous with cosolvent or surfactant or cyclodextrin) was 921 ± 347 µg/mL (≈ 3470 µM); in series [2] (pH 1.2, simulated gastric fluid), 406 ± 53.4 µg/mL (≈ 1530 µM); in series [2] (pH 7.4, aqueous buffer) it was 4.6 ± 1.3 µg/mL (≈ 17.3 µM); in series [2] (pH 7.4, aqueous with cosolvent or surfactant or cyclodextrin), 43 ± 8.3 µg/mL (≈ 162 µM). Further, in series [2], the “HPßCD-induced solubility increasing effect” value is 1.3 fold.

Consider `COC(=O)Nc1nc2ccc([S+]([O-])c3ccccc3)cc2[nH]1` (centres unmarked) [Oxfendazole, oxfendazole], for which the solubility at 2 weeks in series [2] (setting [6]) is 1900 ± 606 µg/mL (≈ 6030 µM); in series [2] (setting [7]) it was 420 ± 29.2 µg/mL (≈ 1330 µM); in series [2] (setting [8]), 348 ± 46.8 µg/mL (≈ 1100 µM). In addition, in series [2], the “HPßCD-induced solubility increasing effect” value was 35 fold.

As for `Nc1nc2ccc(C(=O)c3ccc(F)cc3)cc2[nH]1` [H-FLBZ], in series [3], the “time of detection in plasma (low concentrations)” value was 18 to 48 h.

With `COC(=O)Nc1nc2cc(C(=O)c3ccc(F)cc3)ccc2[nH]1` [Flubendazole], the solubility at 2 weeks in series [2] (setting [6]) is 2250 ± 552 µg/mL (≈ 7190 µM); in series [2] (setting [7]) it was 29.6 ± 2.8 µg/mL (≈ 94.5 µM); in series [2] (setting [8]), 164 ± 120 µg/mL (≈ 523 µM); in series [2] (aqueous solution (KH2PO4) without HPβCD, pH 7.4, aqueous buffer), 5.8 ± 7 µg/mL (≈ 18.5 µM). In series [4], the “potency in parasite motility test” value was “high potency”. The “affinity binding for ß-tubulin” value in series [5] was “high affinity binding”.

Regarding `CCC[S+]([O-])c1ccc2[nH]c(NC(=O)OC)nc2c1` (centres unmarked) [Albendazole sulphoxide, albendazole sulphoxide], the highest aqueous solubility in series [2] (pH 1.2 (value of Table 1 with HPßCD)) is 6600 ± 1300 µg/mL. The aqueous solubility in series [2] (pH 1.2, with HPßCD (10%)) is 6637.7 ± 1370.2 µg/mL (≈ 23600 µM); in series [2] (pH 1.2, without HPßCD), 3818.6 ± 202.1 µg/mL (≈ 13600 µM); in series [2] (pH 7.4, with HPßCD (10%)), 871.9 ± 129.3 µg/mL (≈ 3100 µM); in series [2] (pH 7.4, without HPßCD), 83.6 ± 7.6 µg/mL (≈ 297 µM). In addition, the “HPßCD-induced solubility increasing effect” value in series [2] is listed as 0.7 fold.
